From publication PMC6266488, “Synthesis and Evaluation of Spumigin Analogues Library with Thrombin Inhibitory Activity” (Marine Drugs, 2018)
Like-named read-outs stand apart in the source and are kept apart here. Square brackets hold non-standard residues; d marks the D form. Peptide text beside a SMILES is read from it. d(hPhe) = N[C@H](CCc1ccccc1)C(=O)O; dPhLac = O=C(O)[C@H](O)Cc1ccccc1

Tests used:
[1] = biological target: T1, Thrombin from human plasma (Homo sapiens, UniProt P00734); test: Enzyme amidolytic assay, thrombin inhibition (chromogenic substrate S-2238); assay type: biochemical; conditions: for Ki: Ki Thrombin, S-2238 substrate, 25 °C, Cheng and Prusoff
T1 construct: Thrombin from human plasma; purchased Sigma; host or cells: human plasma
Method: (§1) The enzyme amidolytic method for determining inhibition was based on the spectrophotometric determination of absorbance of the product formed after amide bond cleavage of a chromogenic substrate in the presence of the enzyme. Ki, which is a quantitative measure of inhibitor potency, was determined from the kinetics of substrate hydrolysis with and without the addition of the inhibitor. Measurements (spectrophotometer, BioTek Synergy H4, BioTek Instruments, Winooski, VT, USA) were performed in 96-well microtiter plates with a final volume of 200 µL. Thrombin (Thrombin from human plasma, Sigma, Taufkirchen, Germany) was tested at a final concentration of 0.5 NIH E/mL with the substrate S-2238 (H-D-Phenylalanyl-L-pipecolyl-L-arginine-p-nitroaniline dihydrochloride, Chromogenix AB, Mondal, Sweden) at 20 and 40 mM final concentration, and factor Xa (Factor Xa from bovine plasma, Chromogenix) at the final concentration of 1 mBAEE E/mL with the substrate S-2222 (N-Benzoyl-L-isoleucyl-L-glutamyl-glycyl-L-arginine-p-nitroaniline hydrochloride and its methyl ester, Chromogenix) at 100 and 200 mM final concentrations. Trypsin (Trypsin from bovine pancreas, Sigma) was assayed at a final concentration of 0.5 nkat/mL using the substrate S-2222 (Chromogenix) at 50 and 100 mM final concentrations. Inhibitors were dissolved in DMSO (concentration of stock solutions, 10 mmol/L) and diluted with distilled water to concentrations from […]. Reaction rates were measured in the presence and the absence of the inhibitor. Then, 50 µL HBSA buffer, 50 µL solution of each inhibitor concentration (or of HBSA buffer in case of measurement without inhibitor), and 50 µL of enzyme solution were pipetted into the microtiter wells. The plate was incubated for 15 min at 25 °C and then […] of chromogenic substrate was added. Absorbance at 405 nm at 25 °C was measured every 10 s. Measurements were carried out in triplicate with three concentrations of the inhibitor and two concentrations of the substrate. For every combination of concentrations, Ki was calculated from the change of absorbance in the initial, linear part of the curve according to the method of Cheng and Prusoff and the final result was given as their average value.

[2] = biological target: T2, Factor Xa from bovine plasma (Bos taurus, UniProt P00743); test: Enzyme amidolytic assay, factor Xa inhibition (chromogenic substrate S-2222); assay type: biochemical; conditions: for Ki: S-2222 substrate, 25 °C, Cheng and Prusoff
T2 construct: Factor Xa from bovine plasma; purchased Chromogenix; host or cells: bovine plasma
Method: as §1, with “Thrombin (Thrombin from human plasma, Sigma, Taufkirchen, Germany) was tested at a final concentration of 0.5 NIH E/mL with the substrate S-2238 (H-D-Phenylalanyl-L-pipecolyl-L-arginine-p-nitroaniline dihydrochloride, Chromogenix AB, Mondal, Sweden) at 20 and 40 mM final concentration, and factor Xa (Factor Xa from bovine plasma, Chromogenix) at the final concentration of 1 mBAEE E/mL with the substrate S-2222 (N-Benzoyl-L-isoleucyl-L-glutamyl-glycyl-L-arginine-p-nitroaniline hydrochloride and its methyl ester, Chromogenix) at 100 and 200 mM final concentrations. Trypsin (Trypsin from bovine pancreas, Sigma) was assayed at a final concentration of 0.5 nkat/mL using the substrate S-2222 (Chromogenix) at 50 and 100 mM final concentrations.” left out, “Absorbance at 405 nm at 25 °C was measured every 10 s.” left out

[3] = biological target: T3, Trypsin from bovine pancreas (Bos taurus, UniProt P00760); test: Enzyme amidolytic assay, trypsin inhibition (chromogenic substrate S-2222); assay type: biochemical; conditions: for Ki: S-2222 substrate, 25 °C, Cheng and Prusoff
T3 construct: Trypsin from bovine pancreas; purchased Sigma; host or cells: bovine pancreas
Method: as §1

Thrombin = conditions: read-out: Thrombin Inhibition EC50; cited from earlier work

T2 sequence (P00743 41-180): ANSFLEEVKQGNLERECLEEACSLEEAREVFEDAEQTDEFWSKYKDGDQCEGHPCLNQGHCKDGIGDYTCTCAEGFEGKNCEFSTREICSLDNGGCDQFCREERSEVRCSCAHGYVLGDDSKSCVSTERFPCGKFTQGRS
T2 sequence (P00743 234-492): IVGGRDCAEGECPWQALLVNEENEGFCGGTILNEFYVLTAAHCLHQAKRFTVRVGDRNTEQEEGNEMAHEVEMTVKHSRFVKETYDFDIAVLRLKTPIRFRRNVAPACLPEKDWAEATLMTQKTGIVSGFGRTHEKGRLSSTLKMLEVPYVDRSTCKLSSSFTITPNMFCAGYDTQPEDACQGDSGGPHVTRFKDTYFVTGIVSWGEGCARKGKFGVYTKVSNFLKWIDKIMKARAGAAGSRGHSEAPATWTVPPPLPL
T3 sequence (P00760 24-246): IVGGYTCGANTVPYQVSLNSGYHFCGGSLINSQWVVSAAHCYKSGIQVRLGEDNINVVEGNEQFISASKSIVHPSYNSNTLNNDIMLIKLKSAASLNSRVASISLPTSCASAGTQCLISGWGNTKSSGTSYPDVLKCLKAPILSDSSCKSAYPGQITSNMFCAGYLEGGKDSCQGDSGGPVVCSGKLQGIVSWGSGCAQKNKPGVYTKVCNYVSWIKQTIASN

| Compound | Ki [1] [µM] | Ki ([2]; read-out: Ki Factor Xa) [µM] | Ki [3] [µM] | EC50 (Thrombin) [µM] | Ki ([2]; Ki Factor Xa) [µM] | IC50 [1] [µM] | IC50 ([2]; in brackets in Ki Factor Xa column) [µM] | IC50 ([3]; in brackets in Ki Trypsin column) [µM] |
| --- | --- | --- | --- | --- | --- | --- | --- | --- |
| COC(=O)C(CCCNC(=N)N)NC(=O)C1Cc2ccccc2N1C(=O)C(CCc1ccccc1)NC(=O)C(O)Cc1ccc(O)cc1 (mixture of isomers) [Compound 11e] | 30 ± 12 | 48 ± 5 | 3.9 ± 0.3 | – | – | – | – | – |
| COC(=O)C(CCCNC(=N)N)NC(=O)C1Cc2ccccc2N1C(=O)C(CCc1ccccc1)NC(=O)C(O)Cc1ccc(O)cc1 (mixture of isomers) [Compound 11k] | 34 ± 10 | 57 ± 8 | 72 ± 6 | – | – | – | – | – |
| N=C(N)NCCC[C@@H](CO)NC(=O)[C@@H]1Cc2ccccc2N1C(=O)[C@@H](CCc1ccccc1)NC(=O)[C@@H](O)Cc1ccc(O)cc1 (mixture of isomers) [Compound 11l] | 186 ± 48 | 62 ± 4 | 62 ± 3 | – | – | – | – | – |
| C[C@H]1C[C@@H](C(=O)N[C@H](CO)CCCN=C(N)N)N(C(=O)[C@@H](CCc2ccc(O)cc2)NC(=O)[C@H](O)Cc2ccc(O)cc2)C1 (racemic) [spumigin A (racemate), spumigin A] | – | – | – | 7.5 | – | – | – | – |
| COC(=O)[C@H](CCCNC(=N)N)NC(=O)[C@H]1Cc2ccccc2N1C(=O)[C@@H](Cc1ccccc1)NC(=O)[C@H](O)Cc1ccccc1 (single isomer, unassigned) [Compound 11a] | 52 ± 10 | – | 7.9 ± 3.5 | – | 49 ± 4 | – | – | – |
| COC(=O)[C@H](CCCNC(=N)N)NC(=O)[C@H]1Cc2ccccc2N1C(=O)[C@@H](CCc1ccccc1)NC(=O)[C@H](O)Cc1ccccc1 (single isomer, unassigned) [Compound 11b] | 44 ± 7 | 39 ± 6 | 2.8 ± 0.4 | – | – | – | – | – |
| N=C(N)NCCC[C@@H](CO)NC(=O)[C@H]1Cc2ccccc2N1C(=O)[C@@H](Cc1ccccc1)NC(=O)[C@H](O)Cc1ccccc1 (single isomer, unassigned) [Compound 11c] | 92 ± 20 | 54 ± 3 | 54 ± 1 | – | – | – | – | – |
| N=C(N)NCCC[C@@H](CO)NC(=O)[C@H]1Cc2ccccc2N1C(=O)[C@@H](CCc1ccccc1)NC(=O)[C@H](O)Cc1ccccc1 (single isomer, unassigned) [Compound 11d] | 11 ± 4 | – | 29 ± 2 | – | 47 ± 6 | – | – | – |
| COC(=O)[C@H](CCCNC(=N)N)NC(=O)[C@@H]1Cc2ccccc2N1C(=O)[C@@H](Cc1ccccc1)NC(=O)[C@H](O)Cc1ccccc1 (single isomer, unassigned) [Compound 11g] | 50 ± 9 | – | 126 ± 14 | – | 47 ± 8 | – | – | – |
| COC(=O)[C@H](CCCNC(=N)N)NC(=O)[C@@H]1Cc2ccccc2N1C(=O)[C@@H](CCc1ccccc1)NC(=O)[C@H](O)Cc1ccccc1 (single isomer, unassigned) [Compound 11h] | 24 ± 8 | 35 ± 9 | 58 ± 17 | – | – | – | – | – |
| N=C(N)NCCC[C@@H](CO)NC(=O)[C@@H]1Cc2ccccc2N1C(=O)[C@@H](Cc1ccccc1)NC(=O)[C@H](O)Cc1ccccc1 (single isomer, unassigned) [Compound 11i] | 170 ± 58 | 51 ± 4 | 50 ± 3 | – | – | – | – | – |
| N=C(N)NCCC[C@@H](CO)NC(=O)[C@@H]1Cc2ccccc2N1C(=O)[C@@H](CCc1ccccc1)NC(=O)[C@H](O)Cc1ccccc1 (single isomer, unassigned) [Compound 11j] | 187 ± 79 | – | 693 ± 159 | – | 41 ± 9 | – | – | – |
| N=C(N)NCCC[C@H](NC(=O)[C@H]1Cc2ccccc2N1C(=O)[C@@H](Cc1ccccc1)NC(=O)[C@H](O)Cc1ccccc1)C(=O)O (single isomer, unassigned) [Compound 12g] | 98 ± 26 | 69 ± 1 | 0.28 ± 0.04 | – | – | – | – | – |
| COC(=O)[C@H](CCCNC(=N)N)NC(=O)[C@@H]1Cc2ccccc2N1C(=O)[C@@H](CC(C)C)NC(=O)[C@H](O)Cc1ccccc1 (single isomer, unassigned) [Compound 29a] | 5.6 ± 0.3 | 30 ± 2 | 4.8 ± 0.7 | – | – | – | – | – |
| COC(=O)[C@H](CCCNC(=N)N)NC(=O)[C@H]1Cc2ccccc2N1C(=O)[C@@H](CC(C)C)NC(=O)[C@H](O)Cc1ccccc1 (single isomer, unassigned) [Compound 29b] | 129 ± 13 | 65 ± 2 | 134 ± 42 | – | – | – | – | – |
| N=C(N)NCCCC(CO)NC(=O)C1Cc2ccccc2N1C(=O)C(CCc1ccccc1)NC(=O)C(O)Cc1ccc(O)cc1 (stereo not drawn) [Compound 11f] | 20 ± 3 | 76 ± 3 | 14 ± 1 | – | – | – | – | – |
| COC(=O)[C@@H](CCCNC(=N)N)NC(=O)[C@H]1CCCN1C(=O)[C@@H](CCc1ccccc1)NC(=O)[C@H](O)Cc1ccccc1 [Compound 21a, Methyl ((R)-2-((R)-2-hydroxy-3-phenylpropanamido)-4-phenylbutanoyl)-D-prolyl-D-argininate] (H-[dPhLac][d(hPhe)][dP][dR]-OMe) | 3.8 ± 0.4 | 18 ± 4 | 1.4 ± 0.2 | – | – | 33 | 29 | 4.2 |
| COC(=O)C(CCCNC(=N)N)NC(=O)C1CCCN1C(=O)C(CCc1ccccc1)NC(=O)C(O)Cc1ccc(O)cc1 [Compound 21b, Methyl ((R)-2-((R,S)-2-hydroxy-3-(4-hydroxyphenyl)propanamido)-4-phenylbutanoyl)-D-prolyl-D-argininate] | 3.9 ± 0.4 | 29 ± 5 | 0.92 ± 0.08 | – | – | – | – | – |
| C[C@H]1C[C@@H](C(=O)N[C@H](CO)CCCN=C(N)N)N(C(=O)[C@@H](CCc2ccc(O)cc2)NC(=O)[C@H](O)Cc2ccc(O)cc2)C1 [spumigin A] | – | – | – | 2.1 | – | – | – | – |
| C[C@H]1C[C@@H](C(=O)N(C)[C@H](CCCCN)C(=O)O)N(C(=O)[C@@H](CCc2ccc(O)cc2)NC(=O)[C@H](O)Cc2ccc(O)cc2)C1 [spumigin J] | – | – | – | 4.9 | – | – | – | – |
